From patent publication US10919941B2, “Functional lipid constructs” (KODE BIOTECH LIMITED, priority 2007, dated 2021)
No end group written: not given here. *: point of attachment. For = O=C*

Experiments:
[1] = molecular target: Miltenberger antigen MiIII on natural human red cells (human) (UniProt P02724); test: saline phase; cell R1Rz 11291347
[2] = molecular target: Miltenberger antigen MiIII on natural human red cells (human) (UniProt P02724); test: AHG; cell R1Rz 11291347
[3] = molecular target: Miltenberger antigen MiIII on natural human red cells (human) (UniProt P02724); test: saline phase; cell R2R2 11297161
[4] = molecular target: Miltenberger antigen MiIII on natural human red cells (human) (UniProt P02724); test: AHG; cell R2R2 11297161
[5] = molecular target: Miltenberger antigen Vw on natural human red cells (human) (UniProt P02724); test: BioVue AHG; cell 9422184
[6] = molecular target: Miltenberger antigen Mi?X on natural human red cells (human); test: BioVue AHG; cell C.BR
[7] = molecular target: Miltenberger antigen MiIII on natural human red cells (human) (UniProt P02724); test: BioVue AHG; cell 11297161
[8] = molecular target: Miltenberger antigen MiIII on natural human red cells (human) (UniProt P02724); test: AHG; cell Abtectcell III 8245009
[9] = tested on: TAP1 serum (Taiwan Miltenberger antibody positive sample); test: Anti-MUT serum (TAP1) reactivity of modified RBCs (saline and AHG); format: cell-based, human; design: key: 0 or ‘−’ no agglutination; 0 or ‘−’ no agglutination; 1+ or 3=very weak agglutination; 1+ or 3=very weak agglutination; 2+ or 5=weak agglutination; 2+ or 5=weak agglutination; 3+ or 8=moderate strong agglutination; 3+ or 8=moderate strong agglutination; 4+ or 10/12=strong agglutination; 4+ or 10/12=strong agglutination; 4+ or 10/12=strong agglutination; conditions: construct 50 μg/ml (2 hours, 37° C.)
Protocol: (§1) The suspensions are either: • 1. incubated for 2 hours at 37° C. before being washed and suspended in a cell medium for serological analysis at a concentration of 0.8 to 3% (Method 1); or • 2. incubated for 3 to 4 hours at room temperature (circa 25° C.) followed by 18 hours at 4° C. before being washed and suspended in a cell medium for serological analysis at a concentration of 0.8 to 3% (Method 2).
(§2) Serological reactions are graded or scored by either of two established systems (0 or ‘−’ no agglutination, 1+ or 3=very weak agglutination, 2+ or 5=weak agglutination, 3+ or 8=moderate strong agglutination, 4+ or 10/12=strong agglutination)

[10] = tested on: Miltenberger antibody positive sera; test: BioVue AHG card column agglutination serology of modified red blood cells; format: cell-based, human; design: key: 0 or ‘−’ no agglutination; 0 or ‘−’ no agglutination; 1+ or 3=very weak agglutination; 1+ or 3=very weak agglutination; 2+ or 5=weak agglutination; 2+ or 5=weak agglutination; 3+ or 8=moderate strong agglutination; 3+ or 8=moderate strong agglutination; 4+ or 10/12=strong agglutination; 4+ or 10/12=strong agglutination; 4+ or 10/12=strong agglutination; conditions: construct 50 μg/ml
Protocol: Red blood cells are modified by mixing 1 part by volume of washed packed red blood cells with 1 part by volume of peptide-lipid construct dispersed at a concentration of 10 to 1000 pg/ml in cell media (Celpresol™).
as §1, §2
Serological platforms used are Tube (addition of reagents and reactants into plastic or glass serology tubes and after appropriate incubations, washing and centrifugation observing reactions macroscopically by eye and a 10× magnification eyepiece and scoring) and BioVue™ (addition of reactants into cassettes containing beads (including some reactants) and after appropriate incubations and centrifugation observing the reaction patterns trapped within the Gel matrix). BioVue is the serological column agglutination platform of Ortho-Clinical Diagnostics. Diamed is the serological column agglutination platform of Diamed AG.

[11] = tested on: antibody negative serums; test: False positive reactions of modified RBCs with antibody negative serums/plasma; format: cell-based, human; design: key to Reaction score BioVue AHG, PAC samples 1-46, 49, 50, 52, 53 / Reaction score BioVue AHG, PAC sample 47 / Reaction score BioVue AHG, PAC sample 48 / Reaction score BioVue AHG, PAC sample 51 / agglutination score, T series serum 2 / agglutination score, T series serum 42 / agglutination score, T series serum 63 / agglutination score, T series serum 62 / agglutination score, T series serum 7 / agglutination score, T series serum 20 / agglutination score, T series serum 48 / agglutination score, T series serum 22 / agglutination score, T series serum 39 / agglutination score, T series serum 23 / agglutination score, T series serum 30 / agglutination score, T series serum 4 / agglutination score, T series serum 31 / agglutination score, T series serum 44 / agglutination score, T series serum 61 / agglutination score, T series serum 18 / agglutination score, T series serum 21 / agglutination score, T series serum 28 / agglutination score, T series serum 55 / agglutination score, false positive serum T18 / agglutination score, false positive serum T21 / agglutination score, false positive serum T28 / agglutination score, false positive serum T55 / agglutination score, false positive serum T78 / agglutination score, false positive serum T92: 0 or ‘−’ no agglutination; 0 or ‘−’ no agglutination; 1+ or 3=very weak agglutination; 1+ or 3=very weak agglutination; 2+ or 5=weak agglutination; 2+ or 5=weak agglutination; 3+ or 8=moderate strong agglutination; 3+ or 8=moderate strong agglutination; 4+ or 10/12=strong agglutination; 4+ or 10/12=strong agglutination; 4+ or 10/12=strong agglutination; conditions: for Reaction score BioVue AHG, PAC sample 47 / Reaction score BioVue AHG, PAC sample 48 / Reaction score BioVue AHG, PAC sample 51 / Reaction score BioVue AHG, PAC samples 1-46, 49, 50, 52, 53: blood donor plasma, construct 50 μg/ml (2 hours, 37° C.); for % False Positives: panel of blood donor plasma samples (PAC), BioVue AHG, construct 50 μg/ml
[12] = tested on: Miltenberger Antibody Positive Panel; test: Reactivity of modified RBCs against the Miltenberger Antibody Positive Panel; format: cell-based, human; design: key to score vs panel 15 TAP2 / score vs panel 4 T7202 / score vs panel 8 T5896 / score vs panel 2 T217 / score vs panel 3 T165 / score vs panel 14 TAP1 / score vs panel 10 Mia / score vs panel 11 Mur / score vs panel 12 Gam / score vs panel 6 T6025 / score vs panel 7 T8445 / score vs panel 9 MIII / score vs panel 13 BoxH / reactivity with Panel Serum #7 (T8445) / agglutination score, Panel Serum #7 (T8445): 0 or ‘−’ no agglutination; 0 or ‘−’ no agglutination; 1+ or 3=very weak agglutination; 1+ or 3=very weak agglutination; 2+ or 5=weak agglutination; 2+ or 5=weak agglutination; 3+ or 8=moderate strong agglutination; 3+ or 8=moderate strong agglutination; 4+ or 10/12=strong agglutination; 4+ or 10/12=strong agglutination; 4+ or 10/12=strong agglutination; conditions: for score vs panel 2 T217 / score vs panel 3 T165 / score vs panel 4 T7202 / score vs panel 8 T5896 / score vs panel 14 TAP1 / score vs panel 15 TAP2: Table 8, construct 50 μg/ml
[13] = 25° C.; cited from earlier work
[14] = tested on: Miltenberger antibody positive samples and false positive antibody negative samples; test: Reactivity of RBCs modified with capped peptide-lipid constructs in alternative configurations; format: cell-based; design: key: 0 or ‘−’ no agglutination; 0 or ‘−’ no agglutination; 1+ or 3=very weak agglutination; 1+ or 3=very weak agglutination; 2+ or 5=weak agglutination; 2+ or 5=weak agglutination; 3+ or 8=moderate strong agglutination; 3+ or 8=moderate strong agglutination; 4+ or 10/12=strong agglutination; 4+ or 10/12=strong agglutination; 4+ or 10/12=strong agglutination; conditions: capped construct 50 μg/mL, 2 hours at 37° C.
Protocol: Peptide-lipid constructs comprising CMG(2) and the following peptides were prepared:
The termini of the peptides were formylated and amidated to provide “capped” peptides. The reactivity of random Miltenberger antibody positive samples and three false positive antibody negative samples were tested against RBCs modified to incorporate these “capped” peptide-lipid constructs (50 μg/mL, 2 hours at 37° C.).
The reactivity was assessed and recorded in Table 24. […] However, linkage of the peptide via a Cys residue located at the amino terminus (as opposed to the carboxy terminus) appeared to reduce the likelihood of reactivity with the false-positive antibody negative samples and improve reactivity with the known antibody positive samples.

Row | Compound | Reactivity with anti-MUT serum TAP1 [9] | BioVue score vs TAP1 [10] | BioVue score vs positive sample 2 T217 (T) [10] | BioVue score vs positive sample 3 T165 (Mur) [10] | BioVue score vs positive sample 4 T7202 (M) [10] | BioVue score vs positive sample 8 T5896 (M + K + Mur) [10] | Reaction score BioVue AHG, PAC sample 47 [11] | Reaction score BioVue AHG, PAC sample 48 [11] | Reaction score BioVue AHG, PAC sample 51 [11] | Reaction score BioVue AHG, PAC samples 1-46, 49, 50, 52, 53 [11] | % False Positives [11] [%] | score vs panel 2 T217 [12] | score vs panel 3 T165 [12] | score vs panel 4 T7202 [12] | score vs panel 8 T5896 [12] | score vs panel 14 TAP1 [12] | score vs panel 15 TAP2 [12] | agglutination score, antibody positive serum 55 [14] | agglutination score, antibody positive serum 61 [14] | agglutination score, antibody positive serum 65 [14] | also measured
1 | TAP1 | – | – | – | – | – | – | – | – | – | – | – | – | – | – | – | – | – | – | – | – | agglutination score [1]: 8; agglutination score [2]: 10; agglutination score [3]: 8; agglutination score [4]: 10; agglutination score [5]: 5; agglutination score [6]: 12; agglutination score [7]: 10; agglutination score [8]: 10
2 | M34: DOPE peptide-lipid construct: MUTK peptide SSQTNDKHKR, leader c, spacer CMG(2) (SSQTNDKHKRC; also: DOPE peptide-lipid construct via leader Cys, spacer CMG(2)) | 5 | 5 | 0 | 0 | 0 | 0 | 0 | 3 | 5 | 0 | 3.8 | 0 | 0 | 0 | 0 | 3 | 0 | – | – | – | –
3 | M36: DOPE peptide-lipid construct: MUTK peptide SQTNDKHKRDT, leader c, spacer CMG(2) (SQTNDKHKRDTC; also: DOPE peptide-lipid construct via leader Cys, spacer CMG(2)) | 8 | 8 | 0 | 0 | 0 | 0 | 3 | 5 | 0 | 0 | 3.8 | 0 | 0 | 0 | 0 | 8 | 0 | – | – | – | sensitivity and specificity towards a human polyclonal antibody panel compared with sequence 1 ([12]; MUT peptides, prior art sequence 1): superior sensitivity and specificity
4 | O=C(O)CCCC[C@@H]1SC[C@@H]2NC(=O)N[C@@H]21 [Biotin, [3aS-(3aα, 4β, 6aα)]-hexahydro-2-oxo-1H-thieno[3,4-d]imidazole-4-pentanoic acid] | – | – | – | – | – | – | – | – | – | – | – | – | – | – | – | – | – | – | – | – | solubility in 95% alcohol [13]: approximately 80 mg/100 mL; solubility in water [13]: approximately 22 mg/100 mL
5 | M45: capped peptide-lipid construct comprising CMG(2) and CysThrTyrProAlaHisThrAlaAsnGlu (For-CTYPAHTANE-NH2; also: capped peptide-lipid construct comprising CMG(2)) | – | – | – | – | – | – | – | – | – | – | – | – | – | – | – | – | – | 8 | 5 | 8 | agglutination score, antibody positive serum 67 [14]: 10; agglutination score, antibody positive serum 68 [14]: 0; agglutination score, antibody positive serum 71 [14]: 10; agglutination score, antibody positive serum 942-433813-3 [14]: 5; agglutination score, false-positive antibody negative serum PAC302 [14]: 0; agglutination score, false-positive antibody negative serum PAC332 [14]: 0; agglutination score, false-positive antibody negative serum PAC340 [14]: 0
6 | M44: capped peptide-lipid construct comprising CMG(2) and ThrTyrProAlaHisThrAlaAsnGluCys (For-TYPAHTANEC-NH2; also: capped peptide-lipid construct comprising CMG(2)) | – | – | – | – | – | – | – | – | – | – | – | – | – | – | – | – | – | 8 | 8 | 10 | agglutination score, antibody positive serum 67 [14]: 8; agglutination score, antibody positive serum 68 [14]: 0; agglutination score, antibody positive serum 71 [14]: 10; agglutination score, antibody positive serum 942-433813-3 [14]: 0; agglutination score, false-positive antibody negative serum PAC302 [14]: 5; agglutination score, false-positive antibody negative serum PAC332 [14]: 12; agglutination score, false-positive antibody negative serum PAC340 [14]: 5
